Assays:
hERG potassium channel = hERG potassium channel (Homo sapiens, UniProt Q12809); assay: hERG experiment (QPatch HTX whole-cell, CHO-hERG cells); type: cell-based; details: room temperature, tested at 0.24 to 30.00 μM, read-out: hERG inhibitory activity (IC50)
Method: The cells stably expressing hERG potassium channel used in the experiment were derived from CHO-hERE of Aviva Biosciences, CHO-hERG was cultured under 5% CO2 at 37° C. hERGQPatch^HTX experiments were performed at room temperature. QPatch AssaySoftware 5.2 (Sophion Bioscience) software was used to establish whole-cell protocols, voltage stimulation protocols and compound detection protocols. First, the voltage stimulation was repeated for 30 times, this section was used as the baseline area for subsequent analysis, then 5 μL extracellular fluid was added and repeated three times. The effect concentrations of each compound were added one after the other, repeating three times by the addition of 5 μL volume. The cells were incubated at each test concentration for at least 5 mins. During the entire recording process, each indicator must meet the data analysis acceptance criteria, if the criterion is not met, the cell will not be counted in the analysis range, and the compound will be tested again, the above recording process is automatically operated by Qpatch analysis software. […] In each complete current record, based on the percentage of peak current in the negative control group, the percentage inhibition of the effect concentration of each compound can be calculated. […]

[1] = system: bleomycin-induced rat pulmonary fibrosis; assay: Pharmacodynamics in rats: bleomycin-induced unilateral (left lung) pulmonary fibrosis model; type: in vivo, SD rats; details: for Percentage of pulmonary fibrosis score vs. model group (FIG. 2): Ashcraft score, boundary at 3 (3 or below vs. 4 or above)
Method: Animals in each group started to be administered orally by gavage on the 8th day of modeling for a total of 14 days. All animals were euthanized the next day after the last administration, and the left lung was taken, and the same amount of formalin solution was infused into the lungs, the lung fibrosis score was analyzed by weighing and lung pathology.
Masson Trichrome staining was used for pathological evaluation of pulmonary fibrosis lesion area, pulmonary fibrosis pathology score, and fibrosis grade parameters for left lung pulmonary fibrosis lesions. […] (FIG. 2).

ROCK protein kinase = assay: Evaluation of ROCK protein kinase inhibitory activity in vitro (33P-ATP filter-binding); type: biochemical; details: 1 nM ROCK, 20 μM Long S6 Kinase substrate peptide, room temperature, two hours
Method: Evaluation of ROCK Protein Kinase Inhibitory Activity In Vitro
Experimental object: detecting the inhibitory IC50 value of ROCK protein kinase of the compounds.
Assay buffer solution: 20 mM Hepes (pH 7.5), 10 mM MgCl2, 1 mM EGTA, 0.02% Brij35, 0.02 mg/ml BSA, 0.1 mM Na3VO4, 2 mM DTT, 1% DMSO
ROCK protein kinase substrate Long S6 Kinase substrate peptide was added to the freshly prepared buffer solution at a concentration of 20 μM. Then 1 nM ROCK protein kinase was added and stirred evenly. […] After pre-incubating at room temperature for 20 minutes, ^33P-ATP (radiation intensity 10 μCi/μL) was added to initiate the reaction and the reaction was carried out at room temperature for two hours. […] The Filter-Binding method was used to detect radiation intensity.
The protein kinase inhibitory activity of the compound was expressed as the residual protein kinase activity of a relatively blank substrate (DMSO alone). IC50 values and curves were calculated using Prism software package (GraphPad Software, san Diego Calif., USA).

[2] = Evaluation of pharmacokinetics in rats; type: in vivo; details: rat, plasma, male SD rats, single administration, groups 2 mg/kg intravenous and 10 mg/kg oral gavage, route for this parameter not stated
Method: Evaluation of Pharmacokinetics in Rats Male SD rats were used as test animals, after a single administration, the blood concentrations of the compounds were measured and the pharmacokinetic behavior was evaluated. Six healthy adult male SD rats (7-10 weeks of age, purchased from Shanghai Slack Experimental Animal Co., Ltd.) were randomly divided into two groups of three animals each, and one group was administered the test compound intravenously at 2 mg/kg, the other group was administered orally by gavage the test compound at 10 mg/kg. The vehicle in the intravenous administration group and the gastric administration group was both 10% DMSO+18% HP-β-CD+72% physiological saline. Blood samples were collected from the animals in the intravenous group at 0.0833, 0.25, 0.5, 1, 2, 4, 8, and 24 hours after the administration, and blood samples were collected from the animals in the gavage group at 0.25, 0.5, 1, 2, 4, 6, 8 and 24 hours after the administration. LCMS-MS method was used to determine the plasma drug concentration. WinNonlin™ version 6.3 (Pharsight Mountain View, Calif.) pharmacokinetic software was used to calculate the relevant pharmacokinetic parameters by non-compartment model logarithmic trapezoid method.

[3] = positive drugs: nintedanib 100 and 30 mg/kg/d-qd, pirfenidone 50 and 15 mg/kg/d-bid, oral gavage, 14 days, p<0.05

hERG potassium channel, sequence (Q12809 whole entry): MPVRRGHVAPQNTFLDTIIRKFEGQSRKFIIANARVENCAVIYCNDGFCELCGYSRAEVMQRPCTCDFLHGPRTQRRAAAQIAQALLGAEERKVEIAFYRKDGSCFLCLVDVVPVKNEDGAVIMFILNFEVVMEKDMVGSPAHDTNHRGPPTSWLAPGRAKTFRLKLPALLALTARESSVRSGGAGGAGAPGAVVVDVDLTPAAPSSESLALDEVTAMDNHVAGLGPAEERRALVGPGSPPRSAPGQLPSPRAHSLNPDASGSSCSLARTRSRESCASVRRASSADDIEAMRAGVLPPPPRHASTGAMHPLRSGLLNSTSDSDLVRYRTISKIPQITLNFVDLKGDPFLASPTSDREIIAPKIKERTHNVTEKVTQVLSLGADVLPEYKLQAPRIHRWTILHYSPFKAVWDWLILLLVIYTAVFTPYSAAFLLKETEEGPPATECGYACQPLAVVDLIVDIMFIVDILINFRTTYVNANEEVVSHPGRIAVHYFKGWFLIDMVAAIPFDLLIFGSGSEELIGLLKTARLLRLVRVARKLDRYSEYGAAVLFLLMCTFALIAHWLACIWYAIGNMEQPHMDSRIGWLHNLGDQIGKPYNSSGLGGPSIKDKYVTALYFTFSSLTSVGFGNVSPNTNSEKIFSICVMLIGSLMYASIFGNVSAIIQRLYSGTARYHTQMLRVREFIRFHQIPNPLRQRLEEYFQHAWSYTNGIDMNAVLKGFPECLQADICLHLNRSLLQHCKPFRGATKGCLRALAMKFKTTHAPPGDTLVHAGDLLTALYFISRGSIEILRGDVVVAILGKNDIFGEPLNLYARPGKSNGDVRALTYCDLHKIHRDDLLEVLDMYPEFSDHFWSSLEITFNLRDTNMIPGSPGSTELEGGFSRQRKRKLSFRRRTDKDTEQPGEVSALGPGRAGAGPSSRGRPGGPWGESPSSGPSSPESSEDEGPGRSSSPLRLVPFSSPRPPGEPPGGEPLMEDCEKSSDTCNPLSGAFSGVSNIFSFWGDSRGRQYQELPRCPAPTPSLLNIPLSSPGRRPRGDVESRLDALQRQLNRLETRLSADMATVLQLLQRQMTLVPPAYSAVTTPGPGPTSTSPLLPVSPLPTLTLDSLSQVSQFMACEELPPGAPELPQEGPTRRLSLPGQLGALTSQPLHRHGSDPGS

Cc1cncc2cccc(S(=O)(=O)N3C[C@@H]4CCN[C@@H]4C3)c12 [Embodiment 38 (WO2015/165341), reference compound]
IC50 (hERG potassium channel): 4600 nM

O=S(=O)(c1cccc2cnccc12)N1CCCNCC1 [Fasudil, reference compound]
Pulmonary fibrosis Ashcraft score vs. model group (FIG. 1) ([1]; oral, once a day at 25 mg/kg, 14 consecutive days, p<0.001): achieved the same effect as the positive drug in inhibiting pulmonary fibrosis

O=S(=O)(c1cccc2cnccc12)N1CC2CCNC2C12CC2 (stereo not shown) [embodiment 1]
IC50 (ROCK protein kinase): 20 nM

O=S(=O)(c1cccc2cncc(Cl)c12)N1CC2CCNC2C12CC2 (stereo not shown) [embodiment 2]
IC50 (ROCK protein kinase): 32 nM

O=S(=O)(c1cccc2cncc(F)c12)N1CC2CCNC2C12CC2 (stereo not shown) [embodiment 3]
IC50 (ROCK protein kinase): 93 nM

CC1C2NCCC2CN1S(=O)(=O)c1cccc2cncc(F)c12 (stereo not shown) [embodiment 6-1]
IC50 (ROCK protein kinase): 65 nM

CC1C2NCCC2CN1S(=O)(=O)c1cccc2cncc(F)c12 (stereo not shown) [embodiment 6-2]
IC50 (ROCK protein kinase): 8 nM

CC1C2NCCC2CN1S(=O)(=O)c1cccc2cncc(F)c12 (stereo not shown) [embodiment 6]
IC50 (hERG potassium channel): > 30000 nM
IC50 (ROCK protein kinase): 12 nM
clearance ([2]; read-out: Clearance rate (Cl)): 43.8 mL/min/kg
half-life ([2]; read-out: Half-life period (T1/2) (converted)): 1.12 h
Percentage of pulmonary fibrosis score vs. model group (FIG. 2) ([1]; oral gavage, 14 days): significant statistical difference compared with the model group
Lowest dose effective in inhibiting pulmonary fibrosis ([1]; administered continuously for two weeks): ≤ 1 mg/kg BID
Pulmonary fibrosis-improving effect compared with reference drugs ([1]; compared with nintedanib, pirfenidone and fasudil): comparable to that of nintedanib, pirfenidone, and fasudil at lower doses
Pulmonary fibrosis Ashcraft score vs. model group (FIG. 1) ([1]; oral, once a day at 3 mg/kg, 14 days, consistent with the same dose twice daily): significant effect on inhibiting pulmonary fibrosis
Pulmonary fibrosis Ashcraft score vs. model group (FIG. 1) ([1]; oral, twice a day at three doses (1, 3, 10 mg/kg/d-bid), 14 consecutive days, p<0.001): significant inhibition of pulmonary fibrosis

CC1C2NCCC2CN1S(=O)(=O)c1cccc2cnccc12 (stereo not shown) [embodiment 7-1]
IC50 (ROCK protein kinase): 63 nM

CC1C2NCCC2CN1S(=O)(=O)c1cccc2cnccc12 (stereo not shown) [embodiment 7-2]
IC50 (ROCK protein kinase): 15 nM

CC1C2NCCC2CN1S(=O)(=O)c1cccc2cnccc12 (stereo not shown) [embodiment 7]
IC50 (ROCK protein kinase): 28 nM

Cc1cncc2cccc(S(=O)(=O)N3CC4CCNC4C3C)c12 (stereo not shown) [embodiment 8]
IC50 (ROCK protein kinase): 18 nM

CC1C2NCCC2CN1S(=O)(=O)c1cccc2c(O)ncc(F)c12 (stereo not shown) [embodiment 10]
IC50 (ROCK protein kinase): 783 nM

COC(=O)c1ccc2c(c1)NC(=O)/C2=C(\Nc1ccc(N(C)C(=O)CN2CCN(C)CC2)cc1)c1ccccc1 [nintedanib, reference compound]
Percentage of pulmonary fibrosis score vs. model group (FIG. 2) ([1]; oral gavage, 14 days): significant differences compared with the model group
Pulmonary fibrosis Ashcraft score vs. model group (FIG. 1) [1, 3]: significantly improved the degree of pulmonary fibrosis

Cc1ccc(=O)n(-c2ccccc2)c1 [pirfenidone, reference compound]
Percentage of pulmonary fibrosis score vs. model group (FIG. 2) ([1]; oral gavage, 14 days): significant differences compared with the model group
Pulmonary fibrosis Ashcraft score vs. model group (FIG. 1) [1, 3]: significantly improved the degree of pulmonary fibrosis

Source: patent US11155559B2, “Sulfonyl-substituted isoquinolines as inhibitors of RHO kinase and hERG potassium channel activity” (CHINA RESOURCES PHARMACEUTICAL HOLDINGS COMPANY LIMITED, priority 2017, dated 2021)
